Converted amounts (≈) assume the structure as drawn.
What was measured:
E. coli (W4110) = assay: overnight disk diffusion test; assay type: cell-based; conditions: 16 hrs 37 C
Experimental: (§1) Infecting bacteria (10^6 cells/ml from overnight grown cultures) were spread on LA plates on which 15 mm disks, saturated with various antibiotics, had been placed. After incubating the plates at 37 degrees Celsius for 16 hrs the zone of inhibition was determined for each strain. (Abbreviations used in FIG. 1a and Table 1a: CAP—Chloramphenicol; KAN—Kanamycin; AMP—Ampicillin; CEP—Cephamezin GEN—Gentamycin).

S. typhimirium (772) = assay: overnight disk diffusion test; assay type: cell-based; conditions: 16 hrs 37 C
Experimental: as §1

[1] = test system: infecting bacteria of urine samples; assay: antibiotics disc inhibition zone, urine samples (standard analysis); assay type: cell-based
Experimental: A standard analysis (urine culture colony count) was performed to evaluate bacterial load (Table 5a) and antibiotic susceptibility (Table 5b).

[2] = test system: infecting bacteria of urine samples; assay: BLT antibiotic susceptibility of urine samples; assay type: cell-based; set-up: BLT (luminescence): unit not given here; conditions: for BLT (luminescence): 3 hrs 37 C, concentrations given in Table 5; for antibiotic susceptibility of urine samples: key: R = resistant; S = susceptible
Experimental: Six fresh urine samples were obtained from a local clinic and examined for bacteriuria (>10^5 cells/mL urine) and the antibiotic susceptibility of the infecting bacteriuria. A tube containing a an antibiotic mixture that would eliminate all infecting bacteria but not effect the lux cells (Ampicillin, Kanamycin, Tetracyclin, and Chloramphenicol) served as a control.
Each urine sample was diluted in Medium 1 to yield a final concentration of 3%. 0.1 mL of the diluted samples were then incubated for 3 hrs. at 37 degrees Celsius in a microtitre plate, with or without an antimicrobial substance at the concentrations given in Table 5).
An equal volume of Medium 2 containing 10 ng/ml autoinducer and supplemented with 10^6 of the lux cells was then added to each well. The microtiter plate was then incubated at 28 degrees/Celsius and the luminescence was measured using a plate reader luminometer.
Luminescence was measured in the absence of antibiotics, in the presence of a mixture of antibiotics and in the presence of a single antibiotic from the mixture.
When the ratio of the luminescence measured in the presence of the single antibiotic to that measured in the presence of the antibiotic mix exceeds a second predetermined constant (e.g. 3) then the infecting bacteria are […] to the antibiotic.

S. typhi = assay: microbe, parasite or virus in culture; assay type: cell-based
P. aeroginosa = assay: overnight disk diffusion test; assay type: cell-based; conditions: disk 10 ppm, 16 hrs 37 C
Experimental: as §1

S. aureus = assay: BLT (bioluminescence test) MIC determination

Row | Compound | antibiotic susceptibility of urine samples ([2]; urine sample 1) | BLT (luminescence) ([2]; urine sample 1, 3% urine) | antibiotic susceptibility of urine samples ([2]; urine sample 2) | BLT (luminescence) ([2]; urine sample 2, 3% urine) | antibiotic susceptibility of urine samples ([2]; urine sample 3) | BLT (luminescence) ([2]; urine sample 3, 3% urine) | antibiotic susceptibility of urine samples ([2]; urine sample 4) | BLT (luminescence) ([2]; urine sample 4, 3% urine) | antibiotic susceptibility of urine samples ([2]; urine sample 5) | BLT (luminescence) ([2]; urine sample 5, 3% urine) | antibiotic susceptibility of urine samples ([2]; urine sample 6) | BLT (luminescence) ([2]; urine sample 6, 3% urine) | Antibiotics disc inhibition zone ([1]; urine sample 1, 30 ppm) | Antibiotics disc inhibition zone ([1]; urine sample 2, 30 ppm) | Antibiotics disc inhibition zone ([1]; urine sample 3, 30 ppm) | Antibiotics disc inhibition zone ([1]; urine sample 4, 30 ppm) | Antibiotics disc inhibition zone ([1]; urine sample 6, 30 ppm) | other results
1 | CC1(C)S[C@@H]2[C@H](NC(=O)[C@H](N)c3ccccc3)C(=O)N2[C@H]1C(=O)O [Ampicillin] | R | 1 | R | 0.144 | S | 5.11 | S | 30 | R | 0.42 | S | 18 | – | – | – | – | – | zone of inhibition (E. coli (W4110); disk 40 ppm): 40 mm; zone of inhibition (S. typhimirium (772); disk 40 ppm): 30 mm; Antibiotics disc inhibition zone ([1]; urine sample 1, 40 ppm): 0 mm; Antibiotics disc inhibition zone ([1]; urine sample 2, 40 ppm): 0 mm; Antibiotics disc inhibition zone ([1]; urine sample 3, 40 ppm): 5 mm; Antibiotics disc inhibition zone ([1]; urine sample 4, 40 ppm): 7 mm; Antibiotics disc inhibition zone ([1]; urine sample 6, 40 ppm): 5 mm
2 | CO/N=C(\C(=O)N[C@@H]1C(=O)N2C(C(=O)O)=C(COC(N)=O)CS[C@H]12)c1ccco1 [Cefuroxime] | S | 55 | S | 1.36 | S | 2.4 | S | 31 | S | 8.6 | S | 0.76 | 6 mm | 7 mm | 5 mm | 5 mm | 4 mm | –
3 | Cc1nnc(SCC2=C(C(=O)O)N3C(=O)[C@@H](NC(=O)Cn4cnnn4)[C@H]3SC2)s1 [Cephamezin] | S | 61 | S | 2.3 | S | 21.8 | S | 30 | S | 16 | S | 36.8 | 7 mm | 5 mm | 7 mm | 5 mm | 6 mm | zone of inhibition (E. coli (W4110); disk 30 ppm): 30 mm; zone of inhibition (S. typhimirium (772); disk 30 ppm): 40 mm
4 | NC[C@H]1O[C@H](O[C@H]2[C@H](O)[C@@H](O[C@H]3O[C@H](CO)[C@@H](O)[C@H](N)[C@H]3O)[C@H](N)C[C@@H]2N)[C@H](O)[C@@H](O)[C@@H]1O [Kanamicin, Kanamycin] | S | 64 | S | 42 | S | 49 | S | 30 | S | 16 | S | 38 | 5 mm | 5 mm | 5 mm | 2 mm | 1 mm | zone of inhibition (E. coli (W4110); disk 30 ppm): 25 mm; zone of inhibition (S. typhimirium (772); disk 30 ppm): 20 mm; LU, fold increase over control (no antibiotics added) (S. typhi; 0.117 ppm): 1.4; LU, fold increase over control (no antibiotics added) (S. typhi; 0.234 ppm): 1.62; LU, fold increase over control (no antibiotics added) (S. typhi; 0.468 ppm): 1.49; LU, fold increase over control (no antibiotics added) (S. typhi; 0.937 ppm): 1.82; LU, fold increase over control (no antibiotics added) (S. typhi; 1.875 ppm): 2.3; LU, fold increase over control (no antibiotics added) (S. typhi; 3.75 ppm): 2.45; LU, fold increase over control (no antibiotics added) (S. typhi; 7.5 ppm): 3.13; LU, fold increase over control (no antibiotics added) (S. typhi; 15 ppm): 5.79; LU, fold increase over control (no antibiotics added) (S. typhi; 30 ppm): 6.27; MIC (S. typhi; Salmonella enterica, TYPHI, lowest concentration giving two-fold increase of tester luminescence above control): ~1 µg/mL (≈ 2.06 µM)
5 | Cc1onc(-c2ccccc2Cl)c1C(=O)N[C@@H]1C(=O)N2[C@@H]1SC(C)(C)[C@@H]2C(=O)[O-].[Na+] [Orbenil] | R | 0.8 | R | 0.087 | R | 0.76 | S | 30 | R | 0.63 | R | 0.18 | – | – | – | – | – | Antibiotics disc inhibition zone ([1]; urine sample 1, 10 ppm): 0 mm; Antibiotics disc inhibition zone ([1]; urine sample 2, 10 ppm): 0 mm; Antibiotics disc inhibition zone ([1]; urine sample 3, 10 ppm): 0 mm; Antibiotics disc inhibition zone ([1]; urine sample 4, 10 ppm): 6 mm; Antibiotics disc inhibition zone ([1]; urine sample 6, 10 ppm): 0 mm
6 | CC1(C)S[C@@H]2[C@H](NC(=O)Cc3ccccc3)C(=O)N2[C@H]1C(=O)O [Penicillin G] | R | 0.5 | R | 0.93 | S | 4 | S | 30 | R | 0.417 | S | 11 | – | – | – | – | – | Antibiotics disc inhibition zone ([1]; urine sample 1, 40 ppm): 0 mm; Antibiotics disc inhibition zone ([1]; urine sample 2, 40 ppm): 0 mm; Antibiotics disc inhibition zone ([1]; urine sample 3, 40 ppm): 3 mm; Antibiotics disc inhibition zone ([1]; urine sample 4, 40 ppm): 7 mm; Antibiotics disc inhibition zone ([1]; urine sample 6, 40 ppm): 2 mm
7 | Gentamycin [Gentamicin] | S | 53 | S | 44 | S | 30 | S | 36 | S | 11.5 | S | 35 | – | – | – | – | – | zone of inhibition (E. coli (W4110); disk 10 ppm): 15 mm; zone of inhibition (P. aeroginosa): 20 mm; zone of inhibition (S. typhimirium (772); disk 10 ppm): 20 mm; Antibiotics disc inhibition zone ([1]; urine sample 1, 10 ppm): 4 mm; Antibiotics disc inhibition zone ([1]; urine sample 2, 10 ppm): 5 mm; Antibiotics disc inhibition zone ([1]; urine sample 3, 10 ppm): 6 mm; Antibiotics disc inhibition zone ([1]; urine sample 4, 10 ppm): 2 mm; Antibiotics disc inhibition zone ([1]; urine sample 6, 10 ppm): 5 mm; LU, fold increase over control (no antibiotics added) (S. aureus; 0.39 ppm): 1.2; LU, fold increase over control (no antibiotics added) (S. aureus; 0.781 ppm): 1.2; LU, fold increase over control (no antibiotics added) (S. aureus; 1.562 ppm): 1.3; LU, fold increase over control (no antibiotics added) (S. aureus; 3.125 ppm): 1.5; LU, fold increase over control (no antibiotics added) (S. aureus; 6.25 ppm): 3.1; LU, fold increase over control (no antibiotics added) (S. aureus; 12.5 ppm): 3.6; LU, fold increase over control (no antibiotics added) (S. aureus; 25 ppm): 3.4; LU, fold increase over control (no antibiotics added) (S. aureus; 50 ppm): 6.5; MIC (S. aureus; lowest concentration giving two-fold increase of tester luminescence above control): 3.12-6.2 ppm

Reference: patent publication US20110097745A1, “Method For Detecting Microbes” (priority 2007, published 2011)
